Each structure is given as a SMILES string.

The IC50 is the concentration that gives 50% inhibition. Read a low IC50 as greater potency in that assay.

The first assay relates to PDE4 enzyme of human origin. The assay can be described thus: PDE4-inhibiting activity on an enzyme preparation obtained from the U937 cell line.
Details: not given
It counts as biochemical. How it is done:
In the case of the PDE4 enzymes, this value is compared with that of rolipram, a specific PDE4 inhibitor. […] Measurement of the enzyme activity of the different types of PDE, and especially of the PDE4 enzymes, is then carried out according to a method adapted from W. J. Thompson, ibidem.
For the compound `Cc1cc2c3c(c1)C(c1ccccc1)=NC(n1c(C)nc4cc(C(=O)O)ccc4c1=O)C(=O)N3CC2` (racemic) [Example 7, 2-methyl-3-(9-methyl-4-oxo-1-phenyl-3,4,6,7-tetrahydro-[1,4]diazepino[6,7,1-hi]indol-3-yl)-4-oxo-3,4-dihydroquinazoline-7-carboxylic acid], the half-maximal inhibitory concentration (IC50) is 52 nM.
Consider `Cc1cc2c3c(c1)C(c1ccccc1)=N[C@H](n1c(C)nc4cc(C(=O)O)ccc4c1=O)C(=O)N3CC2` [7D(R), (3R)-2-methyl-3-(9-methyl-4-oxo-1-phenyl-3,4,6,7-tetrahydro[1,4]diazepino[6,7,1-hi]indol-3-yl)-4-oxo-3,4-dihydroquinazoline-7-carboxylic acid], for which the IC50 was 982 nM.
`Cc1cc2c3c(c1)C(c1ccccc1)=N[C@@H](n1c(C)nc4cc(C(=O)O)ccc4c1=O)C(=O)N3CC2` [7E(S), (3S)-2-methyl-3-(9-methyl-4-oxo-1-phenyl-3,4,6,7-tetrahydro[1,4]diazepino[6,7,1-hi]indol-3-yl)-4-oxo-3,4-dihydroquinazoline-7-carboxylic acid] gave an IC50 of 35 nM.
In turn, `Cc1nc2ccccc2c(=O)n1[C@@H]1N=C(c2ccccc2)c2cccc3c2N(CC3)C1=O` [Example 1, (3S)-3-(2-methyl-4-oxo-4H-quinazolin-3-yl)-1-phenyl-6,7-dihydro-3H[1,4]diazepino[6,7,1-hi]indol-4-one] came in with an IC50 of 448 nM.
Still for that read-out and setting: next, `Cc1cc2c3c(c1)C(c1ccccc1)=NC(n1c(C)nc4ccccc4c1=O)C(=O)N3CC2` (stereo not drawn) [Example 2, 9-methyl-3-(2-methyl-4-oxo-4H-quinazolin-3-yl)-1-phenyl-6,7-dihydro-3H-[1,4]diazepino [6,7,1-hi] indol-4-one]: 146 nM; `COc1cc2c3c(c1)C(c1ccccc1)=NC(n1c(C)nc4ccccc4c1=O)C(=O)N3CC2` (stereo not drawn) [Example 2A, 9-methoxy-3-(2-methyl-4-oxo-4H-quinazolin-3-yl)-1-phenyl-6,7-dihydro-3H-[1,4]diazepino [6,7,1-hi] indol-4-one]: 183 nM; `COC(=O)c1ccc2c(=O)n(C3N=C(c4ccccc4)c4cc(OC)cc5c4N(CC5)C3=O)c(C)nc2c1` (stereo not drawn) [Example 2B, Methyl 2-methyl-3-(9-methoxy-4-oxo-1-phenyl-3,4,6,7-tetrahydro[1,4]diazepino[6,7,1-hi]indol-3-yl)-4-oxo-3,4-dihydroquinazoline-7-carboxylate]: 67 nM.
The compound `COc1cc2c3c(c1)C(c1ccccc1)=NC(n1c(C)nc4cc(C(=O)O)ccc4c1=O)C(=O)N3CC2` (stereo not drawn) [Example 2C, 2-methyl-3-(9-methoxy-4-oxo-1-phenyl-3,4,6,7-tetrahydro[1,4]diazepino[6,7,1-hi]indol-3-yl)-4-oxo-3,4-dihydroquinazoline-7-carboxylic acid] registered a half-inhibitory concentration (IC50) of 108 nM.
Same read-out and setting: next, `Cc1cc2c3c(c1)C(c1ccccc1)=N[C@@H](n1c(C)nc4cccc(C)c4c1=O)C(=O)N3CC2` [Example 3, (3S)-9-methyl-3-(2,5-dimethyl-4-oxo-4H-quinazolin-3-yl)-1-ph enyl-6,7-dihydro-3H-[1,4]-diazepino[6,7,1-hi]indol-4-one]: 141 nM.
`Cc1cc2c3c(c1)C(c1ccccc1)=N[C@@H](n1c(C)nc4ccc(C)cc4c1=O)C(=O)N3CC2` [Example 4, (3S)-9-methyl-3-(2,6-dimethyl-4-oxo-4H-quinazolin-3-yl)-1-phenyl-6,7-dihydro-3H-[1,4]diazepino[6,7,1-hi]indol-4-one] came in with a half-maximal inhibitory concentration (IC50) of 553 nM.
Same read-out and setting: next, `Cc1cc2c3c(c1)C(c1ccccc1)=N[C@@H](n1c(C)nc4c(C)cccc4c1=O)C(=O)N3CC2` [Example 5, (3S)-9-methyl-3-(2,8-dimethyl-4-oxo-4H-quinazolin-3-yl)-1-ph enyl-6,7-dihydro-3H-[1,4]diazepino[6,7,1-hi]indol-4-one]: 832 nM.

Still in this assay, the particulars now being: listed as 7B.
Turning to `Cc1cc2c3c(c1)C(c1ccccc1)=NC(n1c(C)nc4cc(C(=O)O)ccc4c1=O)C(=O)N3CC2` (racemic) [Example 7, 2-methyl-3-(9-methyl-4-oxo-1-phenyl-3,4,6,7-tetrahydro-[1,4]diazepino[6,7,1-hi]indol-3-yl)-4-oxo-3,4-dihydroquinazoline-7-carboxylic acid], inhibition was half-maximal at 57 nM (IC50).

The values are drawn from patent US6239130A, “Phosphodiesterase 4-inhibiting diazepinoindolones” (Warner-Lambert Company, priority 1997, dated 2001).
